Measured values as given in EP1988171A1, “SUBSTANCE FKI-2342 AND PROCESS FOR PRODUCTION THEREOF” (THE KITASATO INSTITUTE, priority 2006, dated 2007).
Converted amounts (≈) assume the structure as drawn. Where two headings read alike, the source gives them in different places.

What was measured:
HCT-116 cells = test: Inhibitory action for G2 checkpoint using HCT-116 cells (cell cycle by FACS); type: cell-based, human; settings: for IC50: Homo sapiens, 24 hours; for Selectivity IC50(col) /IC50(bleo): Table 2
Procedure: (§1) An assay method of G2 arrest activity with treatment of anticancer agent using cancer cells is performed according to the method of Suganuma et al. (Cancer Research, […]: 5887-5891, 1999).
A cell suspension (15 ml) of HCT-116 cells derived from human colon cancer, adjusted to 1.5 × 10^5 cells/ml with McCoy's medium, was cultured in McCoy's 5A medium (a medium adding an inactivated fetal bovine serum (FBS) […] and a mixture 5 ml of penicillin (10,000 units/ml) and streptomycin (10 mg/ml) in McCoy's 5A (Invitrogen Inc.) 500 ml) in a 75-cm^3 culture flask (Corning Corp., the U.S.) under the atmosphere of […] at 37°C, and a subinoculation was performed after 3 days.
HCT-116 cells (500 µl) adjusted to give 1.5×10^5 cells/ml. were added into each well of a 24-well microplate (IWAKI Co., Japan) and incubated at 37°C for 24 hours. Thereafter, the medium was removed and 250 µl of 27 µM bleomycin or that of 0.5 µM colcicine prepared with McCoy's 5A medium were added in each well, and FKI-2342A substance - FKI-2342F substance dissolved in 0.5% DMSO, each 250 µl, were added (final concentration: bleomycin 13 µM, colchicine 0.25 µM, and 0.25% DMSO). The plate was incubated under […] at 37°C for 24 hours. After the incubation, the supernatant was recovered in 1.5 ml Eppendorf tube and stored on ice. Cells on the plate were detached by adding trypsin-EDTA solution (150 µl) and culturing at 37°C for 10 minutes. Immediately after the cells were detached, 300 µl of the medium were added to denature the trypsin, and were mixed with the supernatant which was stored on the ice. The mixture was centrifuged at 1,000 rpm for 10 minutes, and the supernatant was removed by using the aspirator, then Krishan's reagent (200 µl) was added thereto, and after allowing to stand for 1 hour, measurement was performed by using FACS.
Measurement of cell cycle was performed by measuring 10,000 cells using FACS Caliber (Becton Dickinson Inc.) to calculate ratio of cells in sub G1, G1, S, and G2/M phase by using analytical software cell Quest.
(§2) Experimental results in relation to FKI-2342A substance - F substance were obtained by using the index of the G2/M phase cell. A concentration of substance, in which the number of cells at G2 phase is reduced to 50% when the number of cells arrested at G2 phase by treatment with bleomycin is' set as 100%, is calculated as IC50 (bleo), and similarly a concentration of substance, in which the number of cells at M phase is reduced to 50%, is calculated as IC50 (col), and the specificity to the G2 phase cells as the selectivity is shown in Table'2.

Jurkat cells = test: Inhibitory action for G2 checkpoint using Jurkat cells (cell cycle by FACS); type: cell-based, human; settings: for IC50: Homo sapiens; for selectivity: specificity to the G2 phase cells, Table 1; for differences between both concentrations: IC50 (col) versus IC50 (bleo)
Procedure: as §1
Jurkat cells derived from human lymphoma were cultured in RPMI 1640 medium (a medium adding an inactivated fetal bovine serum (JRH Bioscience Inc.) 50 ml and a mixture 50 ml of penicillin (10,000 units/ml) and streptomycin (10 mg/ml) (Invitrogen Inc.) in RPMI 1640 (IWAKI Co., Ltd.) 500 ml) by using a 75 cm^3 culture flask. After centrifugation of the Jurkat cells at 1, 000 rpm for 10 minutes, the supernatant was removed by using aspirator to adjust the number of cells to be 5 × 10^5 cells/ml with addition of RPMI 1640 medium. Bleomycin (Nippon Kayaku Co., Ltd.) or colchicines (Sigma Inc.) was added to be the final concentration of 40 µM or 0.5 µM, respectively, into the cell suspension. The suspension was added into each well of 96 well multiplate (Corning Corp., the U.S.), which was previously air dried after adding FKI-2342A - F substances 200 µl (1 × 10^5 cells/well) in each well, and incubated at 37°C for 20 hours.
Cells after culturing for 20 hours were centrifuged at 1,000 rpm for 10 minutes, and the supernatant was removed by using aspirator. Krishan's reagent (trisodium citrate (Wako Pure Chemical Industries, Ltd.) […], IGEPALCA-630 (Sigma Inc.) 1.5 ml, ribonuclease A (Sigma Inc.) 10 mg and propydium iodide (Sigma Inc.) 25 mg dissolved in sterilized water 50.0 ml) […] was added to each well. The well was covered with aluminum foil for light shielding and allowed to stand at room temperature for 1 hour with gently shaking by the shaker to perform DNA staining. Measurement of cell cycle was performed by measuring 10,000 cells using FACS Caliber (Becton Dickinson Inc.) to calculate ratio of cells in sub G1, G1, S, and G2/M phase by using analytical software Ce 11 Quest.
as §2, with “substance wherein” for “substance, in which”, “is” for “is'”, “50%” for “50%,”, “Table 1.” for “Table'2.”

[1] = cells arrested at G2 phase by bleomycin 13 µM reduced to 50%, read-out: IC50 bleomycin
[2] = cells at M phase (colchicine 0.25 µM) reduced to 50%, read-out: IC50 colchicine
[3] = cells arrested at G2 phase by bleomycin 40 µM reduced to 50%, 20 hours, Table 1, read-out: IC50 bleomycin
[4] = cells at M phase (colchicine 0.5 µM) reduced to 50%, 20 hours, Table 1, read-out: IC50 colchicine
[5] = cells arrested at G2 phase by bleomycin reduced to 50%, read-out: IC50 (bleo)
[6] = cells at M phase (colchicine) reduced to 50%, read-out: IC50 (col)

SMILES | IC50 (HCT-116 cells; [1]) [µg/mL] | IC50 (HCT-116 cells; [2]) [µg/mL] | Selectivity IC50(col) /IC50(bleo) (HCT-116 cells) | IC50 (Jurkat cells; [3]) [µg/mL] | IC50 (Jurkat cells; [4]) [µg/mL] | selectivity (Jurkat cells) | differences in a concentration ratio (IC50 (col) / IC50 (bleo)) (HCT-116 cells) [fold] | IC50 (Jurkat cells; [5]) [µg/mL] | IC50 (Jurkat cells; [6]) [µg/mL] | differences between both concentrations (Jurkat cells) [fold]
C=C(C(=O)O)C(CCCCCC(=O)OC)C(=O)O (centres unmarked) [B] | 120 (≈ 465 µM) | 180 (≈ 697 µM) | 2 | 100 (≈ 387 µM) | 200 (≈ 774 µM) | 2 | – | – | – | –
C=C(C(=O)O)C(CCCCCC(=O)OC)C(=O)OC (centres unmarked) [D] | 25 (≈ 91.8 µM) | 100 (≈ 367 µM) | 7 | 25 (≈ 91.8 µM) | 175 (≈ 643 µM) | 7 | 4 | 25 (≈ 91.8 µM) | 175 (≈ 643 µM) | 7
C=C(C(=O)O)C(CCCCCC(=O)OCC)C(=O)O (centres unmarked) [C] | 120 (≈ 441 µM) | 180 (≈ 661 µM) | 2 | 100 (≈ 367 µM) | 200 (≈ 734 µM) | 2 | – | – | – | –
C=C(C(=O)O)C(CCCC(=O)OC)C(=O)OC (centres unmarked) [A] | 120 (≈ 491 µM) | 180 (≈ 737 µM) | 2 | 100 (≈ 409 µM) | 200 (≈ 819 µM) | 2 | – | – | – | –
C=C(C(=O)O)C(CCCC(=O)OCC)C(=O)O (centres unmarked) [F] | 100 (≈ 409 µM) | 180 (≈ 737 µM) | 2 | 100 (≈ 409 µM) | 200 (≈ 819 µM) | 2 | – | – | – | –
C=C(C(=O)O)C(CCCCCCCC(=O)OC)C(=O)O (centres unmarked) [E] | 2 (≈ 6.99 µM) | 20 (≈ 69.9 µM) | 8 | 1.2 (≈ 4.19 µM) | 10 (≈ 34.9 µM) | 8 | 10 | 1.2 (≈ 4.19 µM) | 10 (≈ 34.9 µM) | 8
